Test results: patent US8492589B2, “Alkynyl phenyl derivative compounds for treating ophthalmic diseases and disorders” (Acucela Inc., priority 2007, dated 2013)
Marks after values point to notes of the source that are not given here. Each block holds one molecule with its values, some of them ahead of it.

Assays:
[1] = system: ERG response in the eyes of mice; assay: Electroretinographic (ERG) study, BALB/c mice; type: in vivo; parameters: Vmax average: unit not given beside the values; conditions: for b-wave ampl. 0.01 cd.s/m^2: dark-adapted ERG, in µV (unit assumed); for Vmax average: light-adapted ERG
Protocol: (§1) Each test compound is dissolved in the control solvent (EtOH), and diluted 1:10 ([…]) in corn oil (Crisco Pure Corn Oil, J.M. Smucker Company, Orrville, Ohio) to the desired dose (mg/kg) in the desired volume (˜0.1 mL/animal). The control vehicle is ethanol: corn oil (1:10 (0.9 ml/9 ml)). The treatment designations and animal assignments are described in Table 16.
(§2) Animals are dosed once orally by gavage, with the assigned vehicle control or test compounds during the light cycle (between 30 min and 3 hours 30 min after the beginning of the light cycle).
(§3) ERG recordings are made on dark-adapted and, subsequently (during the course of the same experiment), on light-adapted states. For the dark-adapted response, animals are housed in a dark-adapted environment for at least 1 hour prior to the recording, commencing at least 30 minutes after the start of the light cycle.
(§4) Pupils were dilated by placing a 5 microliter drop of mydriatic solution (tropicamide 0.5%) in the recorded eye. A mouse corneal monopolar contact lens electrode (Mayo Corporation, Inazawa, Aichi, Japan) was placed on the cornea, and a subcutaneous reference low profile needle 12 mm electrode (Grass Telefactor, W Warwick, R.I.) was placed medial from the eye. A ground needle electrode was placed in the tail. Data collection was obtained using an Espion E^2 (Diagnosys LLC, Littleton, Mass.) ERG recording system with Color Dome Ganzfeld stimulator. Full dark-adapted intensity-response function was determined following a brief white flash stimuli of 14 intensities ranging from 0.0001 cd·s/m^2 to 333 cd·s/m^2. Subsequently, full light-adapted intensity-response function was determined following a brief white flash stimuli of 9 intensities ranging from 0.33 cd·s/m^2 to 333 cd·s/m^2. Analysis of the obtained responses was done off-line. Intensity-response function determination was done by fitting a sigmoid function to the data (Naka K I, Rushton Wash., 1966; Naka K I, Rushton Wash., 1967).
A related example describes determining the effect of an alkyne derivative compound that is a visual cycle modulator on the level of ERG response in the eyes of mice after oral dosing of the animals with the compound. The experimental procedure is the same as that described in the previous example with the following exceptions: 12 to 16-week old BALB/c mice were used (body weights 16-25 g).

[2] = system: ERG response in the eyes of mice; assay: Electroretinographic (ERG) study, C57BL/6 mice; type: in vivo; conditions: for b-wave ampl. 0.01 cd.s/m^2: dark-adapted ERG, in µV (unit assumed); for Vmax average: light-adapted ERG
Protocol: This example describes determining the effect of an alkyne derivative compound that is a visual cycle modulator on the magnitude of the ERG response in the eyes of mice after oral dosing of the animals with the compound. […]
Three groups of nine-week old mice (19-25 grams), both genders (strain C5 7BL/6, Charles River Laboratories, Wilmington, Mass.) are housed at room temperature, 72±4° F., and relative humidity of approximately 25%. Animals are housed in a 12-hour light/dark cycle environment, have free access to feed and drinking water and are checked for general health and well-being prior to use and during the study. Body weights are determined for a representative sample of mice prior to initiation of dosing. The average weight determined from this sampling is used to establish the dose for all mice in the study.
as §1, §2, §3, §4

[3] = biological target: T1, recombinant human RPE65 and LRAT (Homo sapiens, UniProt Q16518); assay: In vitro isomerase inhibition assay, recombinant human enzyme system (HEK293 homogenate); type: biochemical
T1 construct: expressed in transfected cells; host or cells: HEK293 cell clone (homogenate); CRALBP was made in E. coli TOP10
T1 sequence (Q16518 2-533 limits assumed): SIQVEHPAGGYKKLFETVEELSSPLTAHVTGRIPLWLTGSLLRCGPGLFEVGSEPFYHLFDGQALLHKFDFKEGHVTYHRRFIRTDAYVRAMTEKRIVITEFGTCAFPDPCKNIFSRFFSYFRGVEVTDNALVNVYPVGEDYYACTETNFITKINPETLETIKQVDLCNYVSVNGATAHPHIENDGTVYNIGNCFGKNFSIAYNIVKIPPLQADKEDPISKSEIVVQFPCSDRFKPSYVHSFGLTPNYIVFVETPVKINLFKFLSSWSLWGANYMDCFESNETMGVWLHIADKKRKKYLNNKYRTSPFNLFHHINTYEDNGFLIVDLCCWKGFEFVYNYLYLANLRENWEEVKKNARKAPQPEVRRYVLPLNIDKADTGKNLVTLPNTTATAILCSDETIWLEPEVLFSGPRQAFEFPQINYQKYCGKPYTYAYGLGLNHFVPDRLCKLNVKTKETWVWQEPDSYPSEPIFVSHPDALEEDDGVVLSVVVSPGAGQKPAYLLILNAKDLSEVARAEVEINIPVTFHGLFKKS
Protocol: The concentration dependent effect of the compounds disclosed herein on the retinol isomerization reaction can also be evaluated with a recombinant human enzyme system. […] A homogenate of HEK293 cell clone expressing recombinant human RPE65 and LRAT were the source of the visual enzymes, and exogenous all-trans-retinol (about 20 μM) was used as the substrate. Recombinant human CRALBP (about 80 ug/mL) was added to enhance the formation of 11-cis-retinal. The 200 μL Bis-Tris Phosphate buffer (10 mM, pH 7.2) based reaction mixture also contains 0.5% BSA, and 1 mM NaPPi. In this assay, the reaction was carried out at 37° C. in duplicates for one hour and was terminated by addition of 300 μL methanol. The amount of reaction product, 11-cis-retinol, was measured by HPLC analysis following Heptane extraction of the reaction mixture. […] The ability of the numerous compounds disclosed herein to inhibit isomerization reaction is quantified and the respective IC50 value is determined. The tables below summarises the IC50 values of various compounds of the present invention determined by either of the above two methods. FIG. 1 is a representative figure of the IC50 determination of the compound of Example 2.

[4] = 4 h, dose 1 (mg/kg oral), aggregated average

- Change vs. control (%) ([1]; dark-adapted ERG b-wave, 4 h, dose 0.2, BALB/c mice): −52.89%
- Change vs. control (%) ([1]; dark-adapted ERG b-wave, 4 h, dose 0.3, BALB/c mice): −80.77%
- Change vs. control (%) ([1]; dark-adapted ERG b-wave, 4 h, dose 0.6, BALB/c mice): −95.92%
- Change vs. control (%) ([1]; dark-adapted ERG b-wave, 25 h, dose 0.3, BALB/c mice, compared to 4 hours vehicle): −55.75%**
- b-wave ampl. 0.01 cd.s/m^2 ([1]; 4 h, dose 0.2, BALB/c mice): 263
- b-wave ampl. 0.01 cd.s/m^2 ([1]; 4 h, dose 0.3, BALB/c mice, aggregated average): 107*
- b-wave ampl. 0.01 cd.s/m^2 ([1]; 4 h, dose 0.6, BALB/c mice): 23
- b-wave ampl. 0.01 cd.s/m^2 ([1]; 25 h, dose 0.3, BALB/c mice): 247
- Change vs. control (%) ([1]; light-adapted ERG Vmax, 4 h, dose 0.2, BALB/c mice): −0.13%
- Change vs. control (%) ([1]; light-adapted ERG Vmax, 4 h, dose 0.3, BALB/c mice): 11.33%
- Change vs. control (%) ([1]; light-adapted ERG Vmax, 4 h, dose 0.6, BALB/c mice): 6.34%
- Change vs. control (%) ([1]; light-adapted ERG Vmax, 25 h, dose 0.3, BALB/c mice): 10.66%
- Vmax average ([1]; 4 h, dose 0.2, BALB/c mice): 163
- Vmax average ([1]; 4 h, dose 0.3, BALB/c mice): 181
- Vmax average ([1]; 4 h, dose 0.6, BALB/c mice): 173
- Vmax average ([1]; 25 h, dose 0.3, BALB/c mice): 180
SMILES: CCCC(O)(C#Cc1cccc(C(O)CCN)c1)CCC (centres unmarked) [Example 19, 4-((3-(3-Amino-1-hydroxypropyl)phenyl)ethynyl)heptan-4-ol]

- Change vs. control (%) ([2]; dark-adapted ERG b-wave, 4 h, dose 0.5 (mg/kg oral)): −50.65%
- Change vs. control (%) ([2]; dark-adapted ERG b-wave, 4 h, dose 1 (mg/kg oral)): −94.04%
- Change vs. control (%) ([2]; dark-adapted ERG b-wave, 25 h, dose 1 (mg/kg oral), compared to 4 hours vehicle): −19.93%**
- b-wave ampl. 0.01 cd.s/m^2 ([2]; 4 h, dose 0.5 (mg/kg oral)): 265
- b-wave ampl. 0.01 cd.s/m^2 [2, 4]: 32*
- b-wave ampl. 0.01 cd.s/m^2 ([2]; 25 h, dose 1 (mg/kg oral)): 430
- Change vs. control (%) ([2]; light-adapted ERG Vmax, 4 h, dose 0.5 (mg/kg oral)): 36.49%
- Change vs. control (%) ([2]; light-adapted ERG Vmax, 4 h, dose 1 (mg/kg oral)): 77.03%
- Change vs. control (%) ([2]; light-adapted ERG Vmax, 25 h, dose 1 (mg/kg oral), compared to 4 hours vehicle): 91.89%**
- Vmax average ([2]; 4 h, dose 0.5 (mg/kg oral)): 202
- Vmax average [2, 4]: 262*
- Vmax average ([2]; 25 h, dose 1 (mg/kg oral)): 284
- inhibition of isomerase activity (figure legend) [3]: concentration-dependent inhibition
SMILES: CCCC(O)(C#Cc1cccc(CCCN)c1)CCC [Example 2, 4-((3-(3-Aminopropyl)phenyl)ethynyl)heptan-4-ol]
